For data set [1], the system named is chick embryo vitelline capillaries. Description: chick embryo vitelline capillary regression assay. The class given is in vivo. To be noted: for relative activity: Table 5. On the procedure: Using the chick embryo vitelline capillaries assay, compounds were tested for their ability to induce capillary regression. Each compound was applied in 0.1 ml of 15% Ficol 400 and PBS onto the embryo, and vascular regression was assessed after 60 minutes.
The 3-day chick embryo consists of an embryonic disc from which numerous vessels emerge and return, forming a "FIG. 8"-shaped structure--the embryo in the center with vascular loops extending outward over both poles. […] Following a lag period of around 15 minutes, the constriction of continuity between capillary and secondary vessels, generally on the "venous" side, was observed. Continued pulsatile blood flow progressed, resulting in a "swelling" of the blind tube, followed by a pinching off of the remaining connection and formation of an enclosed vascular sac resembling a "blood island." This process progressed until only the largest vessels remained intact.

The subject of a further data set is S. aureus. Put plainly: antibiotic activity (MIC). It counts as cell-based. To be noted: Staphylococcus aureus; S. aureus; read-out: MIC. An excerpt:
(§1) Thus, it is possible to achieve an antimicrobial steroid with or without squalamine-like pharmacological activity.

In a further data set the test system is E. coli. Put plainly: antibiotic activity (MIC). It counts as cell-based. To be noted: Escherichia coli; E. coli; read-out: MIC.
Source text: as §1

Another data set relates to C. albicans. Put plainly: antibiotic activity (MIC). It counts as cell-based. To be noted: Candida albicans; C. albicans; read-out: MIC.
Source text: as §1

For data set [2], the system named is stage 59-60 Xenopus tadpole. Put plainly: Xenopus tadpole assay. The settings on record: for tadpole response: 10 μg/ml, about 1 hour.
Data set [3] in a line: effect on fasting blood glucose in mice. It counts as in vivo, mouse (male CD-1). The settings on record: i.v. On the procedure:
To study the effect of steroid administrator or the NHE responsible for secretion of insulin, several of the aminosterols from shark liver were administered to fasting mice. Male CD-1 mice were assigned to one of four treatment groups. Whole blood glucose was tested using glucometer (Lifescan Glucometer II and One Touch test strips). Statistical analysis was via one-way analysis of variance (ANOVA) followed by subsequent Bonferonni's t-test.

The test system of data set [4] is Human ovarian carcinoma SKOV3. Description: growth inhibition in vitro. It counts as cell-based. The settings on record: SKOV3. The procedure: As set forth in Table 7 below, all malignant tumors evaluated in tissue culture, endothelial cells and vascular smooth muscle cells were sensitive to inhibition. Thus, compound 1436 has application in the control of growth factor dependent proliferation of many types of tissue.
Using the assay described above, the anticancer effects of compound 1437 against several cancer lines was assessed.

Data set [5] concerns L1210 lymphoblastic leukemia cells. Description: mouse model of leukemia. It counts as in vivo.
Source text: C57B mice were inoculated with L1210 lymphoblastic leukemia cells at an inoculum that causes leukemia in 100% of animals.
A further data set relates to NHE. Description: comparison of compound 319 with squalamine through the assays. The text has this:
Moreover, other aminosterols have shown anti-angiogenic activity. Compounds were subjected to a various assays, including the chick embryo capillary regression assay, the tadpole assay, the assay for inhibition of endothelial cord formation, and the assay for direct inhibition of NHE, as described above, to determine their utilities. As evident from the above data, correlation among the results from the chick, tadpole and in vitro inhibition of endothelial cell cord formation assays is excellent.
Through the application of these assays, compound 319 emerged as an attractive alternative to squalamine. […] Further properties of compound 319 are discussed below.

Another data set deals with P. aerug. Put plainly: antibiotic activity (MIC). It counts as cell-based. The settings on record: P. aerug; read-out: MIC.
Source text: as §1

The next data set has as its system B16 melanoma. Put plainly: suppression of growth of B16 melanoma in C57B mice. The class given is in vivo, mouse. The settings on record: subcutaneous, C57B mice, FIG. 6. On the procedure: The growth of B16 melanoma in C57B mice is dependent upon neovascularization.
Using the growth of B16 melanoma cells in C57B mice, a recognized model for the evaluation of inhibitors of angiogenesis on the growth of cancers, the effects of subcutaneous, intraperitoneal and oral administration of squalamine were evaluated.
Based on the idea that tumor growth involves both the clonal expansion of a malignant cell along with the development of a supporting vascular supply, a combination of compound 1436 with squalamine was tested to determine whether it would achieve a synergistic effect on solid tumor growth. This concept was evaluated in the B16 melanoma model.
Animals were implanted with B16 melanoma followed by treatment with compound 1436 or 1256 administered in a combined schedule or separately. […] Thus, a combination of these two compounds achieves a therapeutic benefit in tumors dependent on neovascularization that may prevent metastatic spread.

Data set [6] concerns human microvascular cells. Put plainly: inhibition of endothelial cell cord formation in vitro. On effect on endothelial cord formation: key: +: Inhibition of angiogenesis; -: No inhibition of angiogenesis; Toxic; *: cell rounding @ 10 µg/ml. The class given is cell-based. To be noted: for minimal effective concentration: Homo sapiens, Endothelial cell, Table II, read-out: Minimum Effective Concentration, Cord Formation. An excerpt:
Endothelial cells have the capacity in vitro to form tubular aggregates resembling capillaries in various early stages of formation. This conversion occurs under relatively specific conditions, in which essential growth factors along with an effective substratum are provided. It has been shown that both the interaction of growth factors with the endothelial cell and its attachment to a substratum activate the NHE. The activation of this exchanger is believed to be required for subsequent morphologic transformation of the endothelial cell into a multicellular tubular structure.
To assess the effect of compounds on the cord-like structures formed by human microvascular cells when plated in the presence of VEGF (Vascular Endothelial Growth Factor) and basic fibroblast growth factor on a collagen matrix, a standard cord formation assay was used.

The test system of a further data set is human melanoma. Description: effect on growth of human melanoma over time / mode of cell death. It counts as cell-based.
Another data set relates to Human melanoma WM 1167. Put plainly: cytotoxic activity against cancer cells. The class given is cell-based.
Another data set deals with Lewis lung carcinoma. Put plainly: cytotoxic activity against cancer cells. It counts as cell-based.
Data set [7] can be described thus: effect on arterial resistance in the rat. The class given is in vivo. To be noted: 40 μg noradrenaline, 30 minutes after compound 1436. The procedure:
A 200-g rat was catheterized in the right carotid artery, and the compound was introduced over a ten-second period to a total dosage of 5 mg/kg. Within 30 seconds, the mean arterial pressure had fallen from about 100 mm Hg to about 70 mm Hg, with a marked reduction in pulse pressure from about 40 mm to about 10 mm. […] If cardiac output was basically unaffected, reduction in blood pressure would have resulted principally from a reduction in system resistance.
At that time, 40 μg of noradrenaline was introduced.

In brackets after ≈: the same amount, converted by molar mass. Entries after “also recorded” stand apart in the source; their conditions may differ.

In the case of `CC(COS(=O)(=O)O)C(=O)CC[C@@H](C)[C@H]1CC[C@H]2[C@@H]3[C@H](O)C[C@H]4C[C@@H](NCCCNCCCCN)CC[C@]4(C)[C@H]3CC[C@]12C` (single isomer, unassigned) [Compound 1360], in data set [1] (within 20 minutes), the “effect on blood circulating through embryonic vessels” value was “exhibited a brighter red color”. The MIC in the data set with S. aureus was 8 µg/mL (≈ 12.5 µM); in the data set on E. coli, 128 µg/mL (≈ 199 µM); with C. albicans, 32 µg/mL (≈ 49.8 µM). In addition, the tadpole response result in data set [2] was “Swelling and lysis of certain erythrocytes occurred, resulting in accumulation of nuclei within certain small vessels of the tail”; in data set [2] (listed as compound 1360) it was “extensive vasocclusion occurred within 60 minutes throughout the tail”.
Regarding `CC(C)C(CO)(CC[C@@H](C)[C@H]1CC[C@H]2[C@@H]3[C@H](O)C[C@H]4C[C@@H](NCCCNCCCCN)CC[C@]4(C)[C@H]3CC[C@]12C)OS(=O)(=O)O` (single isomer, unassigned) [Compound 1437], the hyperglycemia result in [3] is “caused hyperglycemia in mice”. Moreover, the anticancer activity result in data set [4] is “exhibit anticancer activity”. For the same compound, in data set [2], the tadpole response entry is “Epithelium covering the embryonic portions of the animal, such as the tail and antennae, began to slough off in sheets; also recorded: the larval skin was observed to shed off in a sheet”.
Take `N.N.[Cl][Pt][Cl]` [Cisplatin, reference compound]: the hematological profile entry in data set [5] is “profound anemia by day 28”.
Consider `C[C@H](CCC(=O)O)[C@H]1CC[C@H]2[C@@H]3CC[C@H]4C[C@@H](NCCCNCCCCN)CC[C@]4(C)[C@H]3CC[C@]12C` [Compound 319], for which, in [1], the relative activity entry was “especially active”. The “CNS effects (specificity)” value in the data set on NHE is reported as “no CNS effects”. For the same compound, in the data set with NHE, the “potency as an NHE inhibitor vs squalamine” value is listed as “superior to squalamine”. Moreover, the MIC is 32 µg/mL (≈ 63.5 µM) with P. aerug, 64 µg/mL (≈ 127 µM) in the data set on S. aureus, 32 to 64 µg/mL (≈ 63.5 to 127 µM) with E. coli and 8 µg/mL (≈ 15.9 µM) in the data set on C. albicans. Also, in [2], the tadpole response entry was “common vascular occlusive effect”. Also, the “control of B16 melanoma” value in the data set on B16 melanoma is reported as “achieved control of B16 in C57B mice to an extent almost comparable to squalamine”. In addition, the “effect on endothelial cord formation” value is recorded as “-” in [6] (0.01 μg/ml), “+” in data set [6] (0.1 μg/ml), “+” in data set [6] (1.0 μg/ml) and “+” in data set [6] (10.0 μg/ml).
For the compound `CC(C)CCC[C@@H](C)[C@H]1CC[C@H]2[C@@H]3CC[C@H]4C[C@@H](NCCCNCCCCNCCCN)CC[C@]4(C)[C@H]3CC[C@]12C` [Compound 353], in data set [1], the “vitelline capillary regression, potency in words” value was “no effect on the chick embryo capillary bed”. Further, the “mode of cell death” value in the data set with human melanoma was “apoptotic cell death has been induced”. For the same compound, the IC50 in the data set on Human melanoma WM 1167 is 3 µg/mL (≈ 5.24 µM); in the data set on Lewis lung carcinoma it was 1.9 µg/mL (≈ 3.32 µM). The MIC in the data set with P. aerug is 64 µg/mL (≈ 112 µM); in the data set with S. aureus, 16 µg/mL (≈ 27.9 µM); with E. coli, 128 µg/mL (≈ 223 µM); with C. albicans, 32 µg/mL (≈ 55.8 µM). Besides, the “similarity of pharmacologic activity in tadpole assay” value in [2] (in vivo) is on record as “effects like those produced by compound 1436”. Moreover, the “effect on endothelial cord formation” value in data set [6] (0.1 μg/ml), in data set [6] (1.0 μg/ml) and in data set [6] (10.0 μg/ml) was “+” in each case. Also, the minimal effective concentration in data set [6] worked out at 10 µg/mL.
On to `C[C@H](CCC(=O)O)[C@H]1CC[C@H]2[C@@H]3[C@H](O)C[C@@H]4C[C@@H](NCCN)CC[C@]4(C)[C@H]3CC[C@]12C` [Compound 415], for which, in [1], the relative activity entry is “especially active”. Moreover, the MIC in the data set on P. aerug is 256 µg/mL (≈ 589 µM); in the data set with S. aureus, 128 µg/mL (≈ 294 µM); in the data set with E. coli, 128 µg/mL (≈ 294 µM); in the data set with C. albicans, 256 µg/mL (≈ 589 µM). Also, the “effect on endothelial cord formation” value in data set [6] (0.1 μg/ml) is “-”; in data set [6] (1.0 μg/ml), “-”; in data set [6] (10.0 μg/ml), “+/T”. Further, the minimal effective concentration in data set [6] was greater than 10 µg/mL.
For the compound `NC[C@H](O)c1ccc(O)c(O)c1` [noradrenaline, reference compound], the “blood pressure after noradrenaline” value in data set [7] is given as “An almost immediate increase in blood pressure”.

These data come from patent publication US5763430A, “Method of treating a viral infection by administering a steroid compound” (priority 1995, dated 1998).
